# Results: US20210032257A1, “(E)-1-(4-(DIMETHYLAMINO)BUT-2-ENOYL)PYRROLIDIN-3-YL 4-((3-ISOPROPYL-5-METHYLPYRAZOLO[1,5-A]PYRIMIDIN-7-YL)AMINO)PIPERIDINE-1-CARBOXYLATE FOR INHIBITING CDK7” (Eli Lilly and Company, priority 2017, published 2021)
# Experiments:
# Experiment in all cases: Biomarker study proliferation (CellTiter-Glo)
# Assay type in all cases: cell-based
# [1] = tested on: EGL1
# In short: (§1)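 First, cells are plated at 5000 per well and left overnight at 37 °C. Next, compound is added as a 10-point threefold series (10× dosing plate to 1× final). Then plates incubate 7 days, and CellTiter-Glo luminescence is measured.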
# [2] = tested on: EVSAT
# In short: as §1
# [3] = tested on: HCC2218
# In short: as §1
# [4] = tested on: HL60
# In short: as §1
# [5] = tested on: HT1197
# In short: as §1
# [6] = tested on: HT
# In short: as §1
# [7] = tested on: KE97
# In short: as §1
# [8] = tested on: KYSE70
# In short: as §1
# [9] = tested on: LN18
# In short: as §1
# [10] = tested on: MKN45
# In short: as §1
# [11] = tested on: NCIH1048
# In short: as §1
# [12] = tested on: NCIH1092
# In short: as §1
# [13] = tested on: NCIH446
# In short: as §1
# [14] = tested on: NCIH596
# In short: as §1
# [15] = tested on: SH10TC
# In short: as §1
# [16] = tested on: SKMES1
# In short: as §1
# [17] = tested on: SNU1079
# In short: as §1
# [18] = tested on: SNU398
# In short: as §1
# [19] = tested on: U118MG
# In short: as §1
# [20] = 168 h, read-out: Anti-proliferation effect IC50
structure (smiles),measurement,setting,value
"Cc1cc(NC2CCN(C(=O)O[C@H]3CCN(C(=O)/C=C/CN(C)C)C3)CC2)n2ncc(C(C)C)c2n1 [Example 1, [(3S)-1-[(E)-4-(dimethylamino)but-2-enoyl]pyrrolidin-3-yl] 4-[(3-isopropyl-5-methyl-pyrazolo[1,5-a]pyrimidin-7-yl)amino]piperidine-1-carboxylate]",IC50,[1]; [20],41 nM
same,Anti-proliferation effect % Inh.,"[1]; EGL1, 7 days",95%
same,Anti-proliferation effect Outcome,"[1]; EGL1, 7 days",Cytotoxic (cytotoxic (IC50<1 μM and % inhibition ≥70%))
same,Anti-proliferation effect % Inh.,"[2]; EVSAT, BREAST, 7 days",79%
same,Anti-proliferation effect Outcome,"[2]; EVSAT, BREAST, 7 days",Cytotoxic (cytotoxic (IC50<1 μM and % inhibition ≥70%))
same,IC50,"[2]; Homo sapiens, EVSA-T, 168 h, read-out: Anti-proliferation effect IC50",40 nM
same,Anti-proliferation effect % Inh.,"[3]; HCC2218, BREAST, 7 days",41%
same,Anti-proliferation effect Outcome,"[3]; HCC2218, BREAST, 7 days",Cytostatic (cytostatic (IC50<1 μM and % inhibition <70%))
same,IC50,"[3]; Homo sapiens, HCC2218, 168 h, read-out: Anti-proliferation effect IC50",560 nM
same,Anti-proliferation effect % Inh.,"[4]; HL60, BLOOD, 7 days",87%
same,Anti-proliferation effect Outcome,"[4]; HL60, BLOOD, 7 days",Cytotoxic (cytotoxic (IC50<1 μM and % inhibition ≥70%))
same,IC50,"[4]; Homo sapiens, HL-60, 168 h, read-out: Anti-proliferation effect IC50",45 nM
same,Anti-proliferation effect % Inh.,"[5]; HT1197, URINARY, 7 days",55%
same,Anti-proliferation effect Outcome,"[5]; HT1197, URINARY, 7 days",Cytostatic (cytostatic (IC50<1 μM and % inhibition <70%))
same,IC50,"[5]; Homo sapiens, HT1197, 168 h, read-out: Anti-proliferation effect IC50",281 nM
same,Anti-proliferation effect % Inh.,"[6]; BLOOD, 7 days",64%
same,Anti-proliferation effect Outcome,"[6]; BLOOD, 7 days",Cytostatic (cytostatic (IC50<1 μM and % inhibition <70%))
same,IC50,"[6]; Homo sapiens, 168 h, read-out: Anti-proliferation effect IC50",131 nM
same,Anti-proliferation effect % Inh.,"[7]; KE97, BLOOD, 7 days",58%
same,Anti-proliferation effect Outcome,"[7]; KE97, BLOOD, 7 days",Cytostatic (cytostatic (IC50<1 μM and % inhibition <70%))
same,IC50,"[7]; KE-97, 168 h, read-out: Anti-proliferation effect IC50",158 nM
same,IC50,"[8]; Homo sapiens, KYSE-70, 168 h, read-out: Anti-proliferation effect IC50",126 nM
same,Anti-proliferation effect % Inh.,"[8]; KYSE70, OESOPHAGUS, 7 days",70%
same,Anti-proliferation effect Outcome,"[8]; KYSE70, OESOPHAGUS, 7 days",Cytotoxic (cytotoxic (IC50<1 μM and % inhibition ≥70%))
same,IC50,"[9]; Homo sapiens, LN-18, 168 h, read-out: Anti-proliferation effect IC50",15 nM
same,Anti-proliferation effect % Inh.,"[9]; LN18, CNS, 7 days",91%
same,Anti-proliferation effect Outcome,"[9]; LN18, CNS, 7 days",Cytotoxic (cytotoxic (IC50<1 μM and % inhibition ≥70%))
same,IC50,"[10]; Homo sapiens, MKN-45, 168 h, read-out: Anti-proliferation effect IC50",56 nM
same,Anti-proliferation effect % Inh.,"[10]; MKN45, STOMACH, 7 days",79%
same,Anti-proliferation effect Outcome,"[10]; MKN45, STOMACH, 7 days",Cytotoxic (cytotoxic (IC50<1 μM and % inhibition ≥70%))
same,IC50,"[11]; Homo sapiens, NCI-H1048, 168 h, read-out: Anti-proliferation effect IC50",4 nM
same,Anti-proliferation effect % Inh.,"[11]; NCIH1048, LUNG, 7 days",95%
same,Anti-proliferation effect Outcome,"[11]; NCIH1048, LUNG, 7 days",Cytotoxic (cytotoxic (IC50<1 μM and % inhibition ≥70%))
same,IC50,"[12]; Homo sapiens, NCI-H1092, 168 h, read-out: Anti-proliferation effect IC50",683 nM
same,Anti-proliferation effect % Inh.,"[12]; NCIH1092, LUNG, 7 days",42%
same,Anti-proliferation effect Outcome,"[12]; NCIH1092, LUNG, 7 days",Cytostatic (cytostatic (IC50<1 μM and % inhibition <70%))
same,IC50,"[13]; Homo sapiens, NCI-H446, 168 h, read-out: Anti-proliferation effect IC50",13 nM
same,Anti-proliferation effect % Inh.,"[13]; NCIH446, LUNG, 7 days",95%
same,Anti-proliferation effect Outcome,"[13]; NCIH446, LUNG, 7 days",Cytotoxic (cytotoxic (IC50<1 μM and % inhibition ≥70%))
same,IC50,"[14]; Homo sapiens, NCI-H596, 168 h, read-out: Anti-proliferation effect IC50",922 nM
same,Anti-proliferation effect % Inh.,"[14]; NCIH596, LUNG, 7 days",46%
same,Anti-proliferation effect Outcome,"[14]; NCIH596, LUNG, 7 days",Cytostatic (cytostatic (IC50<1 μM and % inhibition <70%))
same,Anti-proliferation effect % Inh.,"[15]; SH10TC, STOMACH, 7 days",58%
same,Anti-proliferation effect Outcome,"[15]; SH10TC, STOMACH, 7 days",Cytostatic (cytostatic (IC50<1 μM and % inhibition <70%))
same,IC50,"[15]; SH-10-TC, 168 h, read-out: Anti-proliferation effect IC50",147 nM
same,IC50,"[16]; Homo sapiens, SK-MES-1, 168 h, read-out: Anti-proliferation effect IC50",28 nM
same,Anti-proliferation effect % Inh.,"[16]; SKMES1, LUNG, 7 days",80%
same,Anti-proliferation effect Outcome,"[16]; SKMES1, LUNG, 7 days",Cytotoxic (cytotoxic (IC50<1 μM and % inhibition ≥70%))
same,IC50,[17]; [20],38 nM
same,Anti-proliferation effect % Inh.,"[17]; SNU1079, BILIARY, 7 days",89%
same,Anti-proliferation effect Outcome,"[17]; SNU1079, BILIARY, 7 days",Cytotoxic (cytotoxic (IC50<1 μM and % inhibition ≥70%))
same,IC50,"[18]; Homo sapiens, SNU-398, 168 h, read-out: Anti-proliferation effect IC50",21 nM
same,Anti-proliferation effect % Inh.,"[18]; SNU398, LIVER, 7 days",85%
same,Anti-proliferation effect Outcome,"[18]; SNU398, LIVER, 7 days",Cytotoxic (cytotoxic (IC50<1 μM and % inhibition ≥70%))
same,IC50,"[19]; Homo sapiens, U-118-MG, 168 h, read-out: Anti-proliferation effect IC50",1170 nM
same,Anti-proliferation effect % Inh.,"[19]; U118MG, CNS, 7 days",42%
same,Anti-proliferation effect Outcome,"[19]; U118MG, CNS, 7 days",Insensitive (insensitive (IC50≥1 μM))
